Read-outs that look alike come from different tables or passages of the source.
Legend:
SNU-16 cells = experiment: SNU-16 cell-based viability assay (CellTiter-Glo); details: Homo sapiens
From the text: For determining the covalent nature of compounds, a simple cell-based assay was employed. SNU-16 cells were obtained from ATCC (Cat #CRL-5974; American Type Culture Collection; Manassas, Va. 20110) for this assay. SNU-16 is a cultured line derived in 1987 by J. Park and associates from ascites of a patient with poorly differentiated gastric carcinoma of the stomach, and cells were collected from the patient prior to chemotherapy. The cells express the surface glycoproteins carcinoembryonic antigen (CEA) and TAG-72. No evidence of amplification or rearrangements has been noted in the N-myc, L-myc, myb and EGF receptor genes, although the c-myc proto-oncogene is amplified. There was no expression of the following genes: N-myc, L-myc, c-cis, IGF-2, or gastrin releasing peptide. These cells are known to have an FGFR2 amplification and are therefore relevant for the compound testing at hand (1). For this assay, cells were plated on poly-D-lysine to maintain attachment. Cells were either exposed to compound for 2 hours or 72 hours to test the ability of the compound to stay on target after binding. Briefly, 80 μL cell solution containing 5000 SNU-16 cells was plated per well into 96-well Poly-D-Lysine Cellware plate and incubated in 37° C. incubator overnight to facilitate adherence. Compounds were solubilized fresh from powder as dimethylsulfoxide stocks (DMSO), and plated as half log, 9 point dilutions in DMSO and then plated into cell media containing RPMI1640+10% FBS for ease of transfer without disrupting cells. Total volume in cells was 100 uL. For cells exposed to compound for two hours, cells were incubated in 37° C. incubator for 2 hours, upon which time plates were removed and cells were centrifuged at 1500 rpm for 5 min, followed by removal of all supernatant, and the re-dispense 100 μL of RPMI1640+10% FBS per well. This was repeated twice. Plates were put back into the incubator for 72 hours. For cells exposed to compound for 72 hours, plates were removed from the incubator for the time of washing but not disturbed, and then placed back in the incubator without washing. Assay plates were read for total ATP by luminescent CTG signal at the end of the 72 hour incubation by adding 100 μL of CTG (Cell TiterGlo: Cat #G9241; Promega Corporation, Madison, Wis., 53711) per well, followed by gently agitating the contents for 2 min on the plate shaker, and incubating the plates for 10 min at room temperature in dark. […] Clin Cancer Res 2010; 16:5750-8.

Human FGFR2 (V565F) = biological target: T1, Human FGFR2 (V565F) (Homo sapiens, UniProt P21802, V564F); experiment: FGFR2 V565F mutation kinase assay (Reaction Biology HotSpot); assay type: biochemical; details: 100 uM ATP
T1 construct: purchased Reaction Biology Corporation (contract assay; enzyme is the CRO's own)
Experimental: Biochemical assays were run at Reaction Biology (Reaction Biology Corporation, 1 Great Valley Parkway, Suite 2, Malvern, Pa. 19355, USA). The Reaction Biology (http://www.reactionbiology.com) HotSpot assay platform was used to measure kinase/inhibitor interactions as described previously (Anastassiadis et al., 2011). In brief, for each reaction, kinase and substrate were mixed in a buffer containing 20 mM HEPES (pH 7.5), 10 mM MgCl2, 1 mM EGTA, 0.02% Brij35, 0.02 mg/mL BSA, 0.1 mM Na3VO4, 2 mM DTT, and 1% DMSO. All compounds were in powder form and freshly solubilized in DMSO for assays. Compounds were then added to each reaction mixture via acoustic dispensing using an ECHO 550 nanoliter dispenser. For Human FGFR2 wildtype testing, a peptide substrate, poly[Glu:Tyr] (4:1) was used to promote the reaction at a concentration of 0.2 mg/ml, with a final ATP concentration as determined by Reaction Biology. For Human FGFR2 (V565F) testing, a peptide substrate, poly[Glu:Tyr] (4:1) was used to promote the reaction at a concentration of 0.2 mg/ml, with a final ATP concentration as determined by Reaction Biology. Compounds were tested in 10-dose IC50 mode with a 3-fold serial dilution. After a 20-min incubation, ATP (Sigma-Aldrich, St. Louis, Mo. 63178) and [g33P] […] Reactions were carried out at room temperature for 2 hr and spotted onto P81 ion exchange cellulose chromatography paper (Reaction Biology). Filter paper was washed in 0.75% phosphoric acid to remove unincorporated ATP. The percent remaining kinase activity relative to a vehicle-containing (DMSO) kinase reaction was calculated for each kinase/inhibitor pair. IC50 values were calculated using Prism 5 (GraphPad).

Human FGFR2 wildtype = biological target: T2, Human FGFR2 wildtype (Homo sapiens, UniProt P21802); experiment: FGFR2 wildtype kinase assay (Reaction Biology HotSpot); assay type: biochemical; details: ATP at Km; read-out: FGFR2 (WT) Km IC50
T2 construct: purchased Reaction Biology Corporation (contract assay; enzyme is the CRO's own)
Experimental: Biochemical assays were run at Reaction Biology (Reaction Biology Corporation, 1 Great Valley Parkway, Suite 2, Malvern, Pa. 19355, USA). The Reaction Biology (http://www.reactionbiology.com) HotSpot assay platform was used to measure kinase/inhibitor interactions as described previously (Anastassiadis et al., 2011). In brief, for each reaction, kinase and substrate were mixed in a buffer containing 20 mM HEPES (pH 7.5), 10 mM MgCl2, 1 mM EGTA, 0.02% Brij35, 0.02 mg/mL BSA, 0.1 mM Na3VO4, 2 mM DTT, and 1% DMSO. All compounds were in powder form and freshly solubilized in DMSO for assays. Compounds were then added to each reaction mixture via acoustic dispensing using an ECHO 550 nanoliter dispenser. For Human FGFR2 wildtype testing, a peptide substrate, poly[Glu:Tyr] (4:1) was used to promote the reaction at a concentration of 0.2 mg/ml, with a final ATP concentration as determined by Reaction Biology. For Human FGFR2 (V565F) testing, a peptide substrate, poly[Glu:Tyr] (4:1) was used to promote the reaction at a concentration of 0.2 mg/ml, with a final ATP concentration as determined by Reaction Biology. Compounds were tested in 10-dose IC50 mode with a 3-fold serial dilution. After a 20-min incubation, ATP (Sigma-Aldrich, St. Louis, Mo. 63178) and [g33P] ATP (specific activity 10 microCi/microliter) purchased at PerkinElmer (Boston, Mass., 02118 Cat #BLU 003H250UC) were added at a final total concentration of 10 mM. Reactions were carried out at room temperature for 2 hr and spotted onto P81 ion exchange cellulose chromatography paper (Reaction Biology). Filter paper was washed in 0.75% phosphoric acid to remove unincorporated ATP. The percent remaining kinase activity relative to a vehicle-containing (DMSO) kinase reaction was calculated for each kinase/inhibitor pair. IC50 values were calculated using Prism 5 (GraphPad).

[1] = cells exposed to compound for 2 hours, washed, read after 72 hour incubation, read-out: SNU-16 IC50 (nM) 2 h
[2] = cells exposed to compound for 72 hours, no washing, read-out: SNU-16 IC50 (nM) 72 h

T2 sequence (P21802 22-821): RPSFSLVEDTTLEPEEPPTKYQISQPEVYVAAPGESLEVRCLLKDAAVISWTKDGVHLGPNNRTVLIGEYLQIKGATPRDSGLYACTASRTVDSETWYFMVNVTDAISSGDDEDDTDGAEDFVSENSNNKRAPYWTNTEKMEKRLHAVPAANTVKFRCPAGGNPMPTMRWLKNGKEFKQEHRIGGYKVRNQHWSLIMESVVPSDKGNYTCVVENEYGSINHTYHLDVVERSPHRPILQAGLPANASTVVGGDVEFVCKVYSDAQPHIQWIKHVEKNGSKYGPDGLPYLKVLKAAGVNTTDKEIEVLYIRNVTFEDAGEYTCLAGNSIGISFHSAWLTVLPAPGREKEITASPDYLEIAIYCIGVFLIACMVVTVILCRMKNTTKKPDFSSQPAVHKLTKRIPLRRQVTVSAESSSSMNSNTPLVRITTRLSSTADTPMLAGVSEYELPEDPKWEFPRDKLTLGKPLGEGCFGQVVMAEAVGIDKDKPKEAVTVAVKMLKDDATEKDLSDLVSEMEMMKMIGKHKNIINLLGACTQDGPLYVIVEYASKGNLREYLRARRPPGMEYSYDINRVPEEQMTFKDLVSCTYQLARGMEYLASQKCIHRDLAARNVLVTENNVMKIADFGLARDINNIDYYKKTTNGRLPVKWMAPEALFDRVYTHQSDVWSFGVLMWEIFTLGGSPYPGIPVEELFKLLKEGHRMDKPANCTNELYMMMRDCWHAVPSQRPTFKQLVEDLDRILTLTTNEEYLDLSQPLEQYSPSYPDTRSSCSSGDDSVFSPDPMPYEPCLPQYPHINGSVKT
T1 sequence (P21802 22-822 isoform P21802-3 V565F limits assumed): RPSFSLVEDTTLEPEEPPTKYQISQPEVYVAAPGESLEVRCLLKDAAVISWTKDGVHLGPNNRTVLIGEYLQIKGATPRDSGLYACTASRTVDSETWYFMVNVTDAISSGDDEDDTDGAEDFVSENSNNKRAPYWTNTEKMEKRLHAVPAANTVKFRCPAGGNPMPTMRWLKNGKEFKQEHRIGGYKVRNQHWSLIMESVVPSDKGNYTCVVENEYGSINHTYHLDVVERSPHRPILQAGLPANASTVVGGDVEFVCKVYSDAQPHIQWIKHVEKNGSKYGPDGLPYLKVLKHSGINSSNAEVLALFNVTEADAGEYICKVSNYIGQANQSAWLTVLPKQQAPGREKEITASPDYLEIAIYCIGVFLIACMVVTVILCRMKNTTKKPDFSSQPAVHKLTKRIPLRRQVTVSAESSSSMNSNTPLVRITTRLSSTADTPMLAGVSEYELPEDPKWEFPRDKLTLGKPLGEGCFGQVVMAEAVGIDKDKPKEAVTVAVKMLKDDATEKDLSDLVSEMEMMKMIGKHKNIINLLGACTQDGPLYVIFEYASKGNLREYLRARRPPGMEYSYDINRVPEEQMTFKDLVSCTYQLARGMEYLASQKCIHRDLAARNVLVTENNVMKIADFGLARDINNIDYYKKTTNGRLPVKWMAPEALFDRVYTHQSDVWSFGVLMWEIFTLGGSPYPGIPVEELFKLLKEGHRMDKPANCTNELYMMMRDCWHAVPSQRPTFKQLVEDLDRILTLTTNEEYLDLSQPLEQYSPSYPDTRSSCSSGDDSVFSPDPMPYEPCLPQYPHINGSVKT

Row | SMILES | IC50 (SNU-16 cells; [1]) [nM] | IC50 (SNU-16 cells; [2]) [nM] | IC50 (Human FGFR2 (V565F)) [nM] | IC50 (Human FGFR2 wildtype) [nM]
1 | C=CC(=O)N1C[C@@H](c2cc(C#Cc3cc(OC)cc(OC)c3)c3c(N)ncnn23)C[C@@H]1COC (single isomer, unassigned) [Chemical Synthesis Example 1] | 1000 to 10000 | 10 to 100 |  | 
2 | C=CC(=O)N1C[C@H](c2cc(C#Cc3cc(OC)cc(OC)c3)c3c(N)ncnn23)C[C@@H]1COC (single isomer, unassigned) [Chemical Synthesis Example 2] | ≤ 10 | ≤ 10 | 10 to 100 | ≤ 10
3 | C=CC(=O)N1CC(c2cc(C#Cc3c(F)c(OC)cc(OC)c3F)c3c(N)ncnn23)C[C@@H]1COC (single isomer, unassigned) [Chemical Synthesis Example 3] | 1000 to 10000 | 100 to 1000 |  | 
4 | C=CC(=O)N1CC(c2cc(C#Cc3c(F)c(OC)cc(OC)c3F)c3c(N)ncnn23)C[C@@H]1COC (single isomer, unassigned) [Chemical Synthesis Example 4] | ≤ 10 | ≤ 10 | ≤ 10 | ≤ 10
5 | C=CC(=O)N1CC(c2cc(C#Cc3cc(OC)cc(OC)c3F)c3c(N)ncnn23)C[C@@H]1COC (single isomer, unassigned) [Chemical Synthesis Example 5] | 1000 to 10000 | 100 to 1000 |  | 
6 | C=CC(=O)N1CC(c2cc(C#Cc3cc(OC)cc(OC)c3F)c3c(N)ncnn23)C[C@@H]1COC (single isomer, unassigned) [Chemical Synthesis Example 6] | ≤ 10 | ≤ 10 | 10 to 100 | ≤ 10

Reference: patent publication US20230174535A1, “INHIBITORS OF FIBROBLAST GROWTH FACTOR RECEPTOR KINASES” (Kinnate Biopharma Inc., priority 2019, published 2023)
